Experimental data published in PMC10424242, “Macrocyclic Peptidomimetic Plasmepsin X Inhibitors with Potent In Vitro and In Vivo Antimalarial Activity” (Journal of Medicinal Chemistry, 2023).
Entries after “also recorded” stand apart in the source; their conditions may differ. Read-outs that look alike come from different tables or passages of the source.

Experiments:
[1] = Plasma protein binding (rapid equilibrium dialysis); type: in vitro ADME; details: pH 7.4, mouse plasma, 2 h at 37 °C
Protocol: Plasma protein binding was performed with rapid equilibrium dialysis (RED) device inserts containing a dialysis membrane with a molecular weight cut-off of 8000 Daltons. Inserts were placed in the single-use RED plate without prior preparation.
The test compound at a concentration of 5 μM was added to mouse plasma and dialyzed against phosphate-buffered saline (PBS, pH 7.4) for 2 h at 37 °C. Propranolol hydrochloride was used as a positive control (high PPB), and fluconazole was used as negative control (low PPB). After dialysis, the drug concentration in the buffer and plasma compartments was quantified by liquid chromatography and tandem mass spectrometry (LC-MS/MS) analysis.

[2] = Liver microsomal metabolic stability; type: in vitro ADME, mouse
Protocol: Microsomal stability assays are performed as described elsewhere.[41] Test compounds and pooled mouse liver microsomes are incubated in potassium phosphate buffer in the presence of the cofactor NADPH at 37 °C. Reaction mixtures (700 μL) contain a final concentration of 5 μM test compound, 0.05% DMSO, 0.5 mg/mL microsomes, and ∼0.7–0.9 mM NADPH in 100 mM potassium phosphate buffer at pH 7.4. Reactions are terminated by the addition of 100 μL of the reaction mixture to 900 μL of acetonitrile after 0, 5, 15, 30, 45, and 60 min of incubation. Samples were centrifuged, and the resultant supernatant was analyzed by ultra-performance liquid chromatography–tandem mass spectrometry (UPLC-MS/MS). The amount of remaining compound is calculated and compared to the initial amount of test compound (zero time point). Verapamil is used as a positive control, and samples prepared without cofactor NADPH are used as a negative control (0 and 60 min). The in vitro metabolic stability parameters (half-life value (t1/2) and intrinsic clearance value (Clint)) are calculated from the slope of the Ln of concentration remaining vs the time curve.

[3] = target: recombinant P. falciparum PMX (Plasmodium falciparum, UniProt Q8IAS0); assay: Recombinant P. falciparum PMX inhibition assay (fluorogenic substrate Rh2N); type: biochemical
recombinant P. falciparum PMX, sequence (Q8IAS0 222-573): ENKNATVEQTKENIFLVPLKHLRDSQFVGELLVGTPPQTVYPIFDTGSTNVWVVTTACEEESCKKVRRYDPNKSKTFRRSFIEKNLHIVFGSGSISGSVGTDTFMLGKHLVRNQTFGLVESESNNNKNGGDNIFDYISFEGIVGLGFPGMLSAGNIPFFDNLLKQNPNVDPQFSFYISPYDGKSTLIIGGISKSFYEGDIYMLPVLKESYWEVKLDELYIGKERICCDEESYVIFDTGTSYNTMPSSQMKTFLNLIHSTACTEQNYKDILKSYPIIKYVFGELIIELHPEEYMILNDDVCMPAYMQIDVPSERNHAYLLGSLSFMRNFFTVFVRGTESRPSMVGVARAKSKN
Protocol: The fluorescence of this peptide is quenched by the spatial proximity of the DABCYL/EDANS groups in the uncleaved peptide and is increased upon cleavage at the internal F–I bond. […] Control wells contained no inhibitor, and the plate was blanked against the substrate only in DB. […] All experiments were performed in duplicate.

[4] = test system: SUB1 p54 to p47 conversion (PMX activity); assay: Washout assay, SUB1 maturation by Western blot; type: cell-based, P. falciparum; details: 20 nM ∼44 h, C2 1 μM for 1 h
Protocol: (§1) The schizont cultures lacking added RBCs were supplemented with compound C2, which blocks the discharge of exonemes, the parasite secretory organelles in which PMX and SUB1 are stored before egress. The schizonts without added RBCs were sampled for Western blot analysis, while the schizont cultures containing RBCs were examined by microscopy and flow cytometry after a further 4 h in culture to quantify schizont rupture and new ring formation.
(§2) Synchronous parasite cultures were cultured from ring to schizont stage (∼44 h) in the presence of DMSO alone (0.04% v/v; control) or macrocycle compounds (20 nM final concentration). Schizonts were isolated by Percoll enrichment (still in the presence of the test compound), then either immediately frozen or further incubated in the absence of the drug but in the presence of C2 (1 μM) for 1 h at 37°C in the absence of added RBCs or for 3.5 h in the presence of added RBCs. The schizonts without added RBCs were then frozen too, and all schizont samples were then thawed into CHAPS–urea extraction buffer, subjected to sodium dodecyl sulfate-polyacrylamide gel electrophoresis (SDS-PAGE), and analyzed by Western blot, probing with antibodies against SUB1 or RAP1. For schizonts cultured in the presence of added RBCs, ring formation was assessed in two ways: cultures were examined microscopically by Giemsa stain of thin films and were also fixed with glutaraldehyde and processed for quantification of ring formation by flow cytometry as described above.

[5] = test system: maturation of RAP1, substrate of PMIX; assay: Western blot of RAP1 maturation in treated schizonts; type: cell-based, P. falciparum; details: 20 nM, 44 h
From the text: Figure 4 Macrocycle PMX inhibitors have no effect on intraerythrocytic parasite maturation but prevent egress and maturation of SUB1. […] Scale bar, 20 μm. (B) Simplified schematic of proteolytic maturation of the egress effector SUB1. Conversion of the precursor form to p54 is through autocatalytic removal[32] of the prodomain region (PD), whereas conversion of p54 to p47 is mediated by PMX.[15],[16],[33] (C) Left, Western blot analysis of P. falciparum 3D7 schizonts allowed to mature in the presence of the indicated macrocycle compounds (20 nM), showing defective SUB1 maturation in parasites treated with the indicated macrocycle compounds. Right, Western blot of the same extracts probed with a monoclonal antibody (mAb) specific to the rhoptry protein RAP1, which is a substrate for cleavage by the related P. falciparum protease PMIX. The compounds had no discernible effect on the maturation of RAP1. The results shown are typical of 3 independent experiments.
as §2

[6] = test system: P. falciparum schizonts; assay: Washout assay, schizont rupture and new ring formation; type: cell-based; details: 20 nM ∼44 h, […] with added RBCs
Protocol: as §1, §2

[7] = target: PMIV (Plasmodium falciparum, UniProt Q8IM16); assay: FRET-based PMIV inhibition assay; type: biochemical, P. falciparum
PMIV, sequence (Q8IM16 122-449): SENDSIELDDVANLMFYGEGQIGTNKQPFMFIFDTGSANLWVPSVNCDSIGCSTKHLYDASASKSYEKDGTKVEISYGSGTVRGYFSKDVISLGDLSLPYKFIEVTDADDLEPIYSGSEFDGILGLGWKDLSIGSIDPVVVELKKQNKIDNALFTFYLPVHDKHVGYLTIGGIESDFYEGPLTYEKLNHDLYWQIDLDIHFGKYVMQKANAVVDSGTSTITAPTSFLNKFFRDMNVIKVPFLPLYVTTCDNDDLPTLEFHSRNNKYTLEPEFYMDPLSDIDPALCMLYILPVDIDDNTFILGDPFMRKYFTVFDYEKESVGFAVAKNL
Protocol: A fluorescence resonance energy transfer (FRET)-based assay was performed to assess the ability of the compounds to inhibit PMIV, CatD, and BACE1. Serial dilutions of test compounds were dispensed in a white 96-well plate. […] The mixture was incubated for 20 min at 37 °C. […] IC50 values were calculated with GraphPad Prism 8.0 using the nonlinear regression, variable slope (four parameters). Compounds were tested in triplicate.

[8] = Tolerability testing in mice; type: in vivo, NMRI female mice; details: p.os 50 mg/kg up to 24 h, 0–6 score system
Protocol: NMRI female mice (10–12 weeks old, 29–32 g) were obtained from ENVIGO (The Netherlands) and housed prior to treatment under standard conditions (acclimatization period of 1 week, 21–23 °C, 12-h light/dark cycle, relative humidity 45–65%) with unlimited access to food (R70 diet from Lantmännen) and water. The experimental procedures were performed in accordance with the guidelines of the European Community and local laws and policies (Directive 2010/63/EU), and all of the procedures were approved by Food and Veterinary Service, Riga, Latvia. Animals were weighed on the day of the treatment (before treatment) to calculate the required amount of compound for the corresponding dose. For tolerability and PK studies, the mice were dosed via a peroral (PO) bolus administration (volume 10 mL/kg). Toxicity signs were scored 0–2, 5, 10, 15, 30, 60, 120, 240 min, and 24 h after administration using a widely used 0–6 score system.

Structure (SMILES): CCCN1CCCCCc2cccc(c2)C[C@@H]([C@H](O)CNC(C)(C)c2cccc(OC)c2)NC(=O)c2cccc(c2)C1=O [7k, (S)-4-((R)-1-Hydroxy-2-((2-(3-methoxyphenyl)propan-2-yl)amino)ethyl)-12-propyl-3,12-diaza-1,6(1,3)-dibenzenacyclotridecaphane-2,13-dione]
- fraction unbound at 2 h, 5 µM [1]: 0.0027
- improvement of half-life in the microsomal stability test ([2]; compared to the acyclic analogue 6a): 3 fold
- half-life at 1 h, 5 μM ([2]; pooled liver microsomes, pH 7.4, mouse liver microsomes, 5 μM): 16.9 min
- microsomal CLint at 1 h, 5 μM ([2]; pooled liver microsomes, pH 7.4, mouse liver microsomes, 5 μM, read-out: microsomal stability CL(int)): 81.9 µL/min/mg
- IC50 ([3]; Table 3, read-out: PMX, nM (as listed in Table 3)): 0.4 ± 0.03 nM
- improvement of PMX inhibitory potency ([3]; compared to 7a): 10 fold
- IC50 ([3]; recombinant PMX, read-out: PMX, nM (IC50)): 0.4 ± 0.03 nM
- SUB1 p54 to p47 conversion after washout [4]: no conversion of SUB1 p54 to p47 occurred
- maturation of RAP (PMIX substrate) [5]: do not affect PMIX activity at these concentrations
- new ring formation after washout [6]: minimal rings were produced
- IC50 ([7]; Table 3, read-out: PMIV, nM (as listed in Table 3)): 17 ± 2 nM
- improvement of PMIV inhibitory potency ([7]; compared to 7a): 3 fold
- IC50 ([7]; read-out: PMIV, nM (IC50)): 17 ± 2 nM
- tolerability [8]: No adverse effects were observed; also recorded: no toxic effect (score 0)
